# Reference: patent US12194140B2, “Compositions for topical treatment of microbial infections” (Hennepin Life Sciences, priority 2012, dated 2025)
# How the values were obtained:
# [1] = tested on: Mycobacterium tuberculosis; assay type: cell-based
# [2] = tested on: Bacillus cereus; experiment: Spectrum of antibacterial activity of GML; assay type: cell-based; settings: optimal growth conditions; 1 strain tested
# [3] = tested on: Mycobacterial species; assay type: cell-based
# [4] = tested on: non-typable Haemophilus influenzae; assay type: cell-based
# [5] = tested on: E. coli (Watson strain); experiment: Effect of pH on GML activity; assay type: cell-based; settings: for bactericidal GML concentration: 24 hours
# Protocol: An experiment was conducted to determine the effect of GML in the presence of various pH levels on the growth of E. coli. E. coli (Watson strain) was grown in Todd Hewitt media and adjusted to […]. Using acetate buffer, the pH of the cultures was adjusted to 5.0, 6.0, or 7.0. […] Samples were removed for enumeration of CFU/mL at 24 hours.
# [6] = tested on: Streptococcus sanguinis; experiment: Spectrum of antibacterial activity of GML; assay type: cell-based; settings: optimal growth conditions; 1 strain tested
# [7] = tested on: S. aureus MN8; experiment: Antibacterial activity of GML after pre-treatment with sterile culture fluid; assay type: cell-based; settings: 24 hour assay
# [8] = tested on: Gardnerella vaginalis; experiment: GML in vegetable oil, growth in Todd Hewitt broth (CFU/mL); assay type: cell-based; settings: GML in olive, 18 hours, 37° C.
# [9] = tested on: Salmonella minnesota; experiment: Spectrum of antibacterial activity of GML; assay type: cell-based; settings: optimal growth conditions; 1 strain tested
# [10] = tested on: Enterobacter aerogenes; experiment: Spectrum of antibacterial activity of GML; assay type: cell-based; settings: optimal growth conditions; 1 strain tested
# [11] = tested on: S. aureus strain MN8; experiment: Decolonization of contaminated surgical incision sites; assay type: in vivo, New Zealand white rabbits; settings: GML 5% w/v non-aqueous gel swabbed
# [12] = tested on: P. aeruginosa (strain PAO 1); experiment: Effect of pH on GML activity; assay type: cell-based, Pseudomonas aeruginosa; settings: GML 10 μg/mL to 5000 μg/mL, 24 hours
# Protocol: The effect of GML at a range of concentrations and in the presence of a range of pH levels on the growth of Pseudomonas aeruginosa was also determined. P. aeruginosa (strain PAO 1) was inoculated in Todd Hewitt broth at 5.7×10^6/mL. GML was added to cultures at a range of concentrations from 10 μg/mL to 5000 μg/mL, and the pH was adjusted to 5.0, 6.0, or 7.0. CFU/mL was determined after 24 hours of incubation. […] A pH of 5.0 in the absence of GML was somewhat inhibitory for the growth of P. aeruginosa.
# [13] = tested on: Listeria monocytogenes; experiment: Spectrum of antibacterial activity of GML; assay type: cell-based; settings: optimal growth conditions; 1 strain tested
# [14] = tested on: oral aerobic bacteria; experiment: Decolonization of teeth and gum lines; assay type: in vivo, human; settings: 5% GML gel on teeth and gum lines; thirty minutes after treatment
# Description: Human volunteers were swabbed with a PBS-saturated swab across the teeth and gum lines on the left side of the mouth and tested for CFU/mL of total bacteria subsequently grown on blood agar plates. The same individuals were then swabbed with GML gel by swabbing the gel across the teeth and gum lines on the right side of the mouth. Enough gel was used to coat the entire surface area of the teeth and gum lines. Thirty minutes after treatment, the participants were swabbed with PBS-saturated swabs on the right side and total CFU/mL were determined. […] Bacterial counts on both sides of the teeth and gum lines were presumed to be approximately equal, and a pre-test swab confirmed that this was the case.
# [15] = tested on: Streptococcus agalactiae; experiment: GML in vegetable oil, growth in Todd Hewitt broth (CFU/mL); assay type: cell-based; settings: GML in olive, palm or corn oil (all 3); 18 hours, 37° C.
# [16] = tested on: Haemophilus influenzae; experiment: Effect of pH on GML activity; assay type: cell-based; settings: 1 μg/mL GML
# Protocol: A similar experiment was carried out to assess the effect of GML on the growth of Haemophilus influenzae at various pHs. 1 μg/mL GML had no effect on the growth of H. influenzae at a pH of 7.0 (FIG. 13).
# [17] = tested on: Streptococcus pneumoniae Serotype III; experiment: Spectrum of antibacterial activity of GML; assay type: cell-based; settings: optimal growth conditions; 2 strains tested
# [18] = tested on: Group F Streptococcus; experiment: Spectrum of antibacterial activity of GML; assay type: cell-based; settings: optimal growth conditions; 1 strain tested
# [19] = tested on: Mycoplasma hominis; experiment: Spectrum of antibacterial activity of GML; assay type: cell-based; settings: optimal growth conditions; 1 strain tested
# [20] = tested on: Gardnerella vaginalis; experiment: Spectrum of antibacterial activity of GML; assay type: cell-based; settings: optimal growth conditions; 2 strains tested
# [21] = tested on: Enterococcus faecalis; experiment: Spectrum of antibacterial activity of GML; assay type: cell-based; settings: optimal growth conditions; 1 strain tested
# [22] = tested on: Group C Streptococcus; experiment: Spectrum of antibacterial activity of GML; assay type: cell-based; settings: optimal growth conditions; 1 strain tested
# [23] = tested on: S. aureus; experiment: Decolonization of anterior nares; assay type: in vivo, human; settings: 5% w/v GML in non-aqueous gel
# Protocol: A study was undertaken to assess the ability of GML (5% w/v), formulated in a non-aqueous gel, to decolonize the respiratory tract in humans, and to decolonize contaminated surgical incision sites in experimental rabbits.
# Three human subjects underwent swabs of the anterior nares in order to assess whether GML was capable of decolonizing the respiratory tract. […] The swabs were rotated around each nare up to the nasal bone 3 times. Colony-forming units of microbes from swabs were determined by plate counts on blood agar and mannitol salt agar. The anterior nares were then treated in the same way with swabs that had been dipped one time in GML gel. The anterior nares of each participant were swabbed at designated time periods for up to 24 hours, and swabs were cultured for S. aureus and coagulase-negative staphylococci.
# [24] = tested on: Staphylococcus aureus MNPE (methicillin sensitive) and MW2 (methicillin resistant); experiment: GML in vegetable oil, growth in Todd Hewitt broth (CFU/mL); assay type: cell-based; settings: both strains; GML in olive, palm or corn oil (all 3); 18 hours, 37° C.
# [25] = tested on: Campylobacter jejuni; experiment: Spectrum of antibacterial activity of GML; assay type: cell-based; settings: optimal growth conditions; 1 strain tested
# [26] = tested on: Pasteurella multocida; experiment: Spectrum of antibacterial activity of GML; assay type: cell-based; settings: optimal growth conditions; 1 strain tested
# [27] = tested on: S. aureus MN8; experiment: Bactericidal activity of GML versus lauric acid; assay type: cell-based; settings: 24 hours, 37° C.; bactericidal = at least 3 log reduction
# [28] = tested on: S. aureus 128 (TSST-1); assay type: cell-based
substance,measurement,setting,value
Glycerol monolaurate [GML],Average Bactericidal Concentration of GML,[1],100 µg/mL
same,Average Bactericidal Concentration of GML,[2],50 µg/mL
same,GML concentration at which organisms were killed,[3],≥ 50 µg/mL
same,"GML concentration inhibiting biofilm formation (crystal violet, absorbance 595 nm)",[4],≤ 1.0 µg/mL
same,bactericidal GML concentration in the context of a biofilm (CFU/mL),[4],50 µg/mL
same,bactericidal GML concentration,[5]; pH 5.0,0.1 µg/mL
same,bactericidal GML concentration,[5]; pH 6.0,50 µg/mL
same,bactericidal GML concentration,[5]; pH 7.0,> 5000 µg/mL
same,increase in susceptibility to GML with each unit drop in pH,[5]; pH 7.0 to 5.0,500 times
same,Average Bactericidal Concentration of GML,[6],50 µg/mL
same,antibacterial activity of GML after pre-incubation,[7]; pre-incubated overnight with sterile culture fluid from S. aureus MN8,eliminated the antibacterial activity
same,antibacterial activity of GML after pre-incubation,[7]; pre-incubated overnight with sterile culture fluid from S. pyogenes,did not affect
same,GML concentration at which growth was completely or nearly completely inhibited,[8]; palm or corn oil (all 3),≥ 20 µg/mL
same,GML concentration at which CFU/mL were reduced,[8]; palm or corn oil (all three),≤ 10 µg/mL
same,Average Bactericidal Concentration of GML,[9],Not Susceptible
same,Average Bactericidal Concentration of GML,[10],Not Susceptible
same,S. aureus CFU/mL at surgical incision sites,"[11]; 24 hour time-point, PBS control 8.8 log CFU/mL",no CPUs were detectable
same,inflammation at the surgical site (redness),"[11]; 24 hours, versus PBS",less inflammation
same,effect on growth (CFU/mL),[12]; pH 5.0,further inhibited P. aeruginosa growth in a dose-dependent manner
same,effect on growth (CFU/mL),[12]; pH 6.0 or 7.0,no concentration of GML was inhibitory
same,Average Bactericidal Concentration of GML,[13],50 µg/mL
same,reduction in CFUs between pretreatment and post-treatment swabs,[14],> 5 log
same,GML concentration at which growth was completely or nearly completely inhibited,[15],≥ 20 µg/mL
same,effect on growth (CFU/mL),"[16]; pH 6.0, 4, 8, and 24 hours",completely abrogated the growth
same,effect on growth (CFU/mL),[16]; pH 7.0,no effect
same,Average Bactericidal Concentration of GML,[17],10 µg/mL
same,Average Bactericidal Concentration of GML,[18],20 µg/mL
same,Average Bactericidal Concentration of GML,[19],1 µg/mL
same,Average Bactericidal Concentration of GML,[20],10 µg/mL
same,Average Bactericidal Concentration of GML,[21],100 µg/mL
same,Average Bactericidal Concentration of GML,[22],30 µg/mL
same,S. aureus counts in both nares after treatment,"[23]; swab, three subjects, all time-points up to 24 hour",0 CFU/mL
same,S. aureus counts over 3 day test period,[23]; one subject,0
same,GML concentration at which growth was inhibited,[24],100 µg/mL
same,Average Bactericidal Concentration of GML,[25],1 µg/mL
same,Average Bactericidal Concentration of GML,[26],500 µg/mL
same,fold lower bactericidal concentration than lauric acid,[27],200 fold
same,TSST-1 in tampon sacs (Western immunoblot),[28],not detected
